Consider six compounds from patent US20060034941A1, “Organ preconditioning, arrest, protection, preservation and recovery” (priority 2002, published 2006).

The target in data set [1] is human NK(1) receptor (Homo sapiens, UniProt P25103). The note with it: cited from earlier work.
The subject of data set [2] is in vivo rabbit model. The following applies: reduced MAP similar to CCPA; cited from earlier work.
In data set [3] the test system is canine neutrophils stimulated by platelet activating factor. The data set can be described thus: In vitro superoxide anion generation by PAF-activated neutrophils. The data set is classed as cell-based. The following applies: PAF 100 nmol; 0.1 to 10 uM L, 0.1 to 100 uM ADO; synergy at 1 uM, 5 uM and 10 uM. Here is the method: PMNs were isolated using the Ficoll-Pacque (Sigma Chemical, St. Louis, Mo.) technique. The cells were adjusted to ˜9×10^7 cells/ml. […] Superoxide anion (—O.2) production by neutrophils stimulated by platelet activating factor (100 nmol) were determined by measuring the superoxide dismutase-inhibitable reduction of ferricytochrome c to ferrocytochrome c spectrophotometrically at 550 nm using a V-Max Microtiter Plate Reader (Molecular Devices, Palo Alto, Calif.). […] Concentrations indicated are final concentrations in each cuvette.

Data set [4] relates to A-V nodal and SA pacemakers. The note with it: cited from earlier work.
For data set [5] the following is noted: i.v., cited from earlier work.

Each structure is given as a SMILES string. pKi: −log10 of the molar value. Read-outs that look alike come from different tables or passages of the source.

Sequence of human NK(1) receptor (P25103 whole entry): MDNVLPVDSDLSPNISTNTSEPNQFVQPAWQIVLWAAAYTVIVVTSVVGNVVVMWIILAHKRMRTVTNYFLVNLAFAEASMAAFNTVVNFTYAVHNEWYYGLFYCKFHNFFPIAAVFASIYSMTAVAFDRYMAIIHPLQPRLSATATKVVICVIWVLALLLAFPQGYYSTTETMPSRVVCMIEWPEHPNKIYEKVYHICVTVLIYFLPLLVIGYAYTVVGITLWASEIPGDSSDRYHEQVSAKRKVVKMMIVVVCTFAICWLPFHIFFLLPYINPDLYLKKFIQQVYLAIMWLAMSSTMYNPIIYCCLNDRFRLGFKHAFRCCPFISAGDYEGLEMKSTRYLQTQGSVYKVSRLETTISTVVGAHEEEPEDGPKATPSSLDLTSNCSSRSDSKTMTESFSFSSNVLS

By pKi is commonly meant −log10 of the Ki, conventionally taken in molar units. With `Cc1cccc(C)c1NC(=O)C[C@H]1CCN(C(=O)c2cc(C(F)(F)F)cc(C(F)(F)F)c2)[C@@H](Cc2ccccc2)C1.O=C(O)C[C@H](O)C(=O)O` (relative stereo) [R116301, (2R-trans)-4-[1-[3,5-bis(trifluoromethyl)benzoyl]-2-(phenylmethyl)-4-piperidinyl]-N-(2,6-dimethylphenyl)-1-acetamide (S)-Hydroxybutanedioate], in data set [1], the pKi was 9.35; the “selectivity toward NK(2) and NK(3) receptors” value is given as “over 200 fold”. `CCCCC#Cc1nc(N)c2ncn([C@@H]3O[C@H](C(=O)NCC)[C@@H](O)[C@H]3O)c2n1` [2HE-NECA, 2-hexynyl-5′-N-ethyl-carboxamindoadenosine]: the “effect on infarct size” value in data set [2] was “did not change infarct size”. In the case of `Nc1ncnc2c1ncn2[C@@H]1O[C@H](CO)[C@@H](O)[C@H]1O` [Ado-only, adenosine], the superoxide anion generation entry in data set [3] is “reduce superoxide anion generation”. Besides, in data set [4], the “effectiveness in slowing the conductance of A-V nodal relative to SA pacemakers” value is recorded as 30 times. With `CCN(CC)CC(=O)Nc1c(C)cccc1C` [Lido-only, lidocaine], the maximum safe dose in data set [5] (with epinephrine) is about 7 mg/kg; in data set [5] (without epinephrine), “approximately 4 mg/kg”. In addition, the superoxide anion generation entry in data set [3] is given as “reduce superoxide anion generation”. Take `CCNC(=O)[C@H]1O[C@@H](n2cnc3c(N)ncnc32)[C@H](O)[C@@H]1O` [NECA, 5′-N-ethyl-carboxamindoadenosine]: the “effect on infarct size” value in data set [2] is reported as “did not change infarct size”.

Regarding `CC(C)NCC(O)COc1ccc(CC(N)=O)cc1` (stereo not shown) [atenolol], the “effect on infarct size” value in data set [2] is listed as “did not change infarct size”.
